Assay results reported in PubChem BioAssay (NCI).
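Cells were grown in 96-well plates and exposed to each compound for 48 hours at five concentrations; endpoints were interpolated linearly between bracketing concentrations, or set to the highest concentration if not reached. GI50 = concentration required for 50% inhibition of growth. TGI is the concentration that stops growth completely.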

Experiments:
Experiment in all cases: DTP human tumour cell line panel, 48 h
[1] = tested on: A549 NSCLC
[2] = tested on: UACC-257 melanoma
[3] = tested on: TK-10 renal
[4] = tested on: CAKI-1 renal
[5] = tested on: SK-MEL-2 melanoma
[6] = tested on: OVCAR-4 ovarian
[7] = tested on: MDA-MB-435
[8] = tested on: CCRF-CEM leukemia
[9] = tested on: K-562 leukemia
[10] = tested on: EKVX NSCLC

Structure (SMILES) | GI50 [1] [µM] | TGI [1] [µM] | GI50 [2] [µM] | TGI [2] [µM] | GI50 [3] [µM] | TGI [3] [µM] | GI50 [4] [µM] | TGI [4] [µM] | GI50 [5] [µM] | TGI [5] [µM] | GI50 [6] [µM] | TGI [6] [µM] | GI50 [7] [µM] | TGI [7] [µM] | GI50 [8] [µM] | TGI [8] [µM] | GI50 [9] [µM] | TGI [9] [µM] | GI50 [10] [µM] | TGI [10] [µM]
CC[C@H](CC#N)OC(=O)N[C@@H](C)c1cccc(NC(=O)Nc2ccc(-c3cnco3)c(OC)c2)c1 | 0.0336 | 20.9 | 0.0922 | 23.1 | 0.171 | 28.3 | 0.0696 | 0.396 | 4.05 | 34.8 | 14.1 | 71.7 | 0.0498 | 29 | < 0.023 | 35.8 | 0.0263 | > 52.6 |  | 
O=C1/C(=C/c2ccc(O)cc2)COc2ccc(-c3ccccc3)cc21 | 13.2 | 49.6 |  |  | 2.98 | 11.9 | 6.9 | 20.2 | 16.8 | 39 | 14.1 | 31 | 4.23 | 35.8 | 0.237 |  | 2.57 | > 39.3 | 13.4 | 32.1
CCN(Cc1ccccc1OC)c1ccc(CO)c(Cl)c1 | 4.26 | 19.8 | 0.162 | 0.498 | 0.0512 | 0.372 | 5.62 | 23.9 | 2.11 | 10.9 | 0.518 | 10.3 | 3.06 | 12.4 | 19 | 60.3 | 2.16 | 12.1 |  | 
CC(C)(C)c1ccc(S(=O)(=O)N[C@H]2CC[C@H]3[C@@H]4CCc5cc(OS(=O)(=O)O)ccc5[C@H]4CC[C@]23C)cc1 | 2.83 | 10.2 | 2.75 | 9.11 | 3.69 | 12.4 | 2.77 | 8.89 | 2.46 | 5.86 | 2.49 | 9.92 | 2.32 | 5.9 | 2.88 | 9.25 | 3.22 | 13.6 |  | 
CCOP(=O)(OCC)C(NC(c1ccccc1)c1ccccc1)c1cccc2ccccc12 (configuration not stated) | 4.28 | > 100 | 3.22 | 13.9 | 10.3 | 29.4 | 4.09 | 14.5 | 27.7 | > 100 |  |  | 9.18 | 28.3 | 5.86 | > 100 | 3.99 | 21 | 16.2 | 35.5
CC12CCC(=O)C=C1CCC1C2C(O)CC2(C)C(c3csc(N)n3)CCC12 (configuration not stated) |  | > 100 |  | > 100 |  | > 100 |  | > 100 |  | > 100 |  | > 100 |  | > 100 |  |  |  | > 100 |  | > 100
COc1cc(Nc2nc(N[C@H]3CCCC[C@@H]3N)nc3cc[nH]c(=O)c23)cc(OC)c1 | 2.57 | 16.1 | 1.55 | 3.33 | 1.84 | 19.3 | 1.84 | 10.9 |  |  | 5.93 | 20 | 0.997 | 2.6 | 1.39 | 11.8 | 2.47 | 10.3 | 1.08 | 12.2
Cc1ccc(C(O)c2cnc(C)n2Cc2ccccc2)cc1 (configuration not stated) |  | > 100 |  | > 100 |  | > 100 |  | > 100 |  | > 100 |  | > 100 |  | > 100 |  |  |  | > 100 |  | > 100
CCc1cc(O)c(Cl)c(C)c1Cl |  | > 100 |  | 35.6 |  | 35.9 |  | 32.7 |  | > 100 |  | 28.5 |  | 30.1 |  | 50.1 |  |  |  | 33.7
CCCCN(Cc1ccc(F)cc1)c1ccc(CO)c(Cl)c1 | 7.38 | 21.6 | 0.862 | 3.75 | 0.319 | 1.89 | 11.7 | 25.5 | 14.5 | 29.9 | 2.54 | 13.6 | 17.6 | 35.1 | 15.8 | 38.1 | 6.76 | 29.6 |  | 
CC(=O)[O-].CC(=O)[O-].[NH2-].[Pt+2].c1ccc2cnccc2c1 | 0.147 | 15.7 |  | 6.49 | 15.5 | 90.7 | 55.1 | > 100 | 36 | > 100 | 22.3 | > 100 | > 100 | > 100 | 14.1 | > 100 | 15.6 | 51.8 |  | 
CC(C)NC(=O)OCCS(=O)c1c(Cl)c(Cl)nn1C (configuration not stated) |  | > 100 |  |  |  | > 100 |  | > 100 |  | > 100 |  | > 100 |  | 56.3 |  | > 100 |  | > 100 |  | > 100
COc1ccc2c3c(c(=O)n(C)c2c1OC)C=CC(C)(C)O3 |  | > 100 |  | > 100 |  | > 100 |  | 38.4 |  | > 100 |  | 41.3 |  | > 100 |  | 88.3 |  |  |  | > 100
